We go through 1 compound from US9011853B2, “B7-H4 fusion proteins and methods of use thereof” (Amplimmune, Inc., priority 2009, dated 2015).

For the assay, the system named is CD4^+CD62L^+ naïve T cells. Kind of assay: Mouse Th17 assay, IL-17A ELISA. Type of assay: cell-based. As for the experimental part:
CD4^+CD62L^+ naïve T cells were isolated from BALB/c mice as in the above examples, and activated by anti-CD3 and anti-CD28 bound beads in the presence of Th17 differntiation cocktail (TGF-β1 (10 ng/mL), IL-6 (50 ng/mL), IL-23 (4 ng/mL), anti-IL-4 (10 μg/mL), anti-IFN-γ (5 μg/mL) and anti-IL-2 (5 μg/mL)). Murine B7-H4-Ig (10 μg/mL) or retinoic acid (RA) (10 μM) was added to the cultures on day 0, day 1, or day 2 of the 4 day culture. IL-17A levels were measured by ELISA at the end of the 4 day culture.
The Th17 assay is 4 days in duration. In order to determine when B7-H4-Ig is acting, the Th17 assay was performed with the addition of 10 μg/mL of murine B7-H4-Ig, 10 μg/mL of mouse IgG control, or […] retinoic acid on Day 0, Day 1, or Day 2.
Peripheral T cells were obtained from spleens and inguinal lymph nodes of 6-9 week old BALB/c mice by mechanical disruption through a cell strainer followed by red blood cell (RBC) lysis.
Naïve helper T cells (CD4^+CD62L^+) were obtained using the Miltenyi Biotec microbead system. CD4^+ cells are enriched by negative selection, and followed by a positive selection of CD62L^+. In some experiments CD25+ cells were also depleted.
After selection, cells are activated in vitro with anti-CD3/CD28 beads at a 1:1 cell:bead ratio in the presence of the TH17 differentiation cocktail (TGF-β1 (10 ng/ml), IL-6 (50 ng/ml), IL-23 (4 ng/ml), anti-IL-2 (5 μg/ml), anti-IL-4 (10 μg/ml), and anti-IFN-γ (5 μg/ml)). Murine B7-H4-Ig is added at a final concentration of 1.25-20 μg/ml. Retinoic acid (RA) is used as positive control and mouse IgG is used as a negative control.
After 4 days of culture, cultures are spun down and supernatants are harvested and stored at <−65° C. until analyzed for IL-17A levels by ELISA.

Molecules are shown by their SMILES.

Turning to `CC1=C(/C=C/C(C)=C/C=C/C(C)=C/C(=O)O)C(C)(C)CCC1` [RA, All trans-Retinoic Acid], for the setting “Th17 promoting conditions, relative to control mouse IgG (FIG. 56)”, the “IL-17A expression (ELISA, day 4)” value is “reduced IL-17A expression”. Also, the “IL-17A inhibition by time of addition” value (murine B7-H4-Ig 10 μg/mL or RA 10 μM (b737 prints 10 mM) added day 0, day 1 or day 2 of 4 day culture (FIG. 53)) is “inhibited IL-17A most potently when added at the beginning of the assay (day 0)”.
